System: lipid peroxidation in large unilamellar vesicles (LUVs)
Assay: Inhibition of lipid peroxidation in large unilamellar vesicles (liposome) model system
Conditions: at 0.5 μg/mL; vs DMSO control at 21 min
Description: Fluorescence intensity was monitored for 21 minutes at intervals of 3 minutes. The percentage of inhibition represented was calculated with respect to DMSO control at 21 min. The concentrations of compounds tested were 1-3, 5 and 9 at 1 μg/mL; 4, 6-8 at 0.5 μg/mL; 15 at 100 μg/mL; 16 at 50 μg/mL; 17 at 10 μg/mL. Commercial antioxidants BHA, BHT and TBHQ were tested at 1 μg/mL. Data represented indicates the mean ± one standard deviation (n=2).
Compounds tested were 10 and 13 at 100 μg/mL; 12 and 11 were at 10 and 50 μg/mL, respectively. Data represented indicates the mean ± one standard deviation (n=2).
The liposome suspension was prepared by mixing the phospholipid 1-stearoyl-2-linoleoyl-sn-glycero-3-phosphocoline (SLPC) and a fluorescence probe [3-[p-(6-phenyl)-1,3,5-hexatrienylph-enylpropionic acid (DPH-PA). The final assay volume was 2 mL and consisted HEPES (100 μL), 1M NaCl (200 μL), N2-sparged water (1.64 ml), test sample or DMSO (20 μL) and liposome suspension (20 μL). The peroxidation was initiated by the addition of 20 μl of FeCl2. […] The fluorescence was monitored at 0, 1, 3 and every 3 min up to 21 min using a Turner Model 450 Digital fluorometer. The decrease in fluorescence intensity over the time (21 min) indicated the rate of peroxidation. The percentage of lipid peroxidation was calculated with respect to DMSO solvent control. Stock solutions of the samples were prepared at 100 μg/ml and diluted further for the assay.

First: Withanamide G [Compound 7]
Second: Withanamide F [Compound 6]
The “inhibition of lipid peroxidation” value of the first is lower: 82% for the first, 85% for the second.

With Withanamide H [Compound 8] the “inhibition of lipid peroxidation” value was 90%.

Same assay, conditions: at 1 μg/mL; vs DMSO control at 21 min

First: Withanamide I [Compound 9]
Second: CC(C)(C)c1cc(O)ccc1O [TBHQ, tert-butylhydroquinone, reference compound]
The “inhibition of lipid peroxidation” value of the first is higher: 86% for the first, 85% for the second.

Going from `COc1ccc(O)c(C(C)(C)C)c1` [BHA, butylated hydroxyanisole, reference compound] to Withanamide D [Compound 4], the “inhibition of lipid peroxidation” value rises from 80% to 94%.

First: Withanamide A [Compound 1]
Second: Withanamide B [Compound 2]
The “inhibition of lipid peroxidation” value of the first is higher: 98% for the first, 93% for the second.

Going from Withanamide E [Compound 5] to Withanamide C [Compound 3], the “inhibition of lipid peroxidation” value falls from 81% to 79%.

For `Cc1cc(C(C)(C)C)c(O)c(C(C)(C)C)c1` [BHT, butylated hydroxytoluene, reference compound], the “inhibition of lipid peroxidation” value was 81%.

Same assay, conditions: at 10 μg/mL; vs DMSO control at 21 min

Going from `CC1=C(C)C(=O)O[C@@H]([C@@H](C)[C@H]2CC[C@H]3[C@@H]4CC=C5C[C@@H](O[C@@H]6O[C@H](CO[C@@H]7O[C@H](CO)[C@@H](O)[C@H](O)[C@H]7O)[C@@H](O)[C@H](O)[C@H]6O)C[C@H](O)[C@]5(C)[C@H]4CC[C@]23C)C1` [Compound 12, Withanoside V] to `Cl.NCCc1c[nH]c2ccc(O)cc12` [Compound 16, serotonine, reference compound], the “inhibition of lipid peroxidation” value falls from 82% to 44%.

Same assay, conditions: at 50 μg/mL; vs DMSO control at 21 min

First: CC1=C(C)C(=O)O[C@@H]([C@](C)(O)[C@H]2CC[C@H]3[C@@H]4CC=C5C[C@@H](O[C@@H]6O[C@H](CO[C@@H]7O[C@H](CO)[C@@H](O)[C@H](O)[C@H]7O)[C@@H](O)[C@H](O)[C@H]6O)C[C@H](O)[C@]5(C)[C@H]4CC[C@]23C)C1 [Compound 11, withanoside VI]
Second: COc1ccc2[nH]cc(CCN)c2c1 [Compound 15, 5-methoxyserotonine, reference compound]
The “inhibition of lipid peroxidation” value of the first is higher: 86% for the first, 30% for the second.

Same assay, conditions: at 100 μg/mL; vs DMSO control at 21 min

Compared with `CC1CC([C@](C)(O)C2CCC3C4CC=C5C[C@@H](OC6OC(COC7OC(CO)C(O)C(O)C7O)C(O)C(O)C6O)C[C@H](O)C5(C)C4CCC32C)OC(=O)C1C` (stereo partly drawn) [Compound 10, 23,24-Dihydrowithanolide VI], `CC1=C(CO)C(=O)O[C@@H]([C@@H](C)[C@H]2CC[C@H]3[C@@H]4CC=C5C[C@@H](O[C@@H]6O[C@H](CO[C@@H]7O[C@H](CO)[C@@H](O)[C@H](O)[C@H]7O)[C@@H](O)[C@H](O)[C@H]6O)C[C@H](O)[C@]5(C)[C@H]4CC[C@]23C)C1` [Compound 13, withanoside IV] is lower in “inhibition of lipid peroxidation” value: 84% for the first, 25% for the second.

`NCCc1c[nH]c2ccccc12` [Compound 14, tryptamine, reference compound] was tested, and the “inhibition of lipid peroxidation” value was 40%.

Same assay, conditions: at 10 ppm

`CC1=C(C)C(=O)O[C@@H]([C@@H](C)[C@H]2CC[C@H]3[C@@H]4CC=C5C[C@@H](O[C@@H]6O[C@H](CO[C@@H]7O[C@H](CO)[C@@H](O)[C@H](O)[C@H]7O)[C@@H](O)[C@H](O)[C@H]6O)C[C@H](O)[C@]5(C)[C@H]4CC[C@]23C)C1` [Compound 12, Withanoside V] was tested, and the “inhibition of lipid peroxidation” value was 82.5%.

Same assay, conditions: at 50 ppm

In the case of `CC1=C(C)C(=O)O[C@@H]([C@](C)(O)[C@H]2CC[C@H]3[C@@H]4CC=C5C[C@@H](O[C@@H]6O[C@H](CO[C@@H]7O[C@H](CO)[C@@H](O)[C@H](O)[C@H]7O)[C@@H](O)[C@H](O)[C@H]6O)C[C@H](O)[C@]5(C)[C@H]4CC[C@]23C)C1` [Compound 11, withanoside VI], the “lipid peroxidation inhibitory activity” value is reported as 86%.

Source: US7282593B2, “Withanamide and withanolide compositions and method of use thereof” (Board of Trustees of Michigan State University, priority 2003, dated 2007)
